Data: patent US5543415A, “Antidepressants” (Kyowa Hakko Kogyo Co., Ltd., priority 1992, dated 1996)

Test system: ddY-strain male mice
Test: Acute Toxicity Test (minimum lethal dose, oral)
Format: in vivo
Details: seven days after administration
Method: Test compounds were orally administered to groups of ddY-strain male mice weighing 20±1 g, each group consisting of three mice. Seven days after the administration, minimum lethal dose (MLD) of each compound was determined by observing the mortality.

Compound	MLD (minimum lethal dose)
CCn1c(=O)c2c(nc(/C=C/c3cccc(OC)c3OC)n2C)n(CC)c1=O [Compound 76, (E)-8-(2,3-Dimethoxystyryl)-1,3-diethyl-7-methylxanthine]	> 300 mg/kg
CCn1c(=O)c2[nH]c(/C=C/c3ccc(OCOC)cc3)nc2n(CC)c1=O [Compound 145, (E)-1,3-Diethyl-8-(4-methoxymethoxystyryl)xanthine]	> 100 mg/kg
CCCn1c(=O)c2[nH]c(/C=C/c3ccccc3F)nc2n(CCC)c1=O [Compound 43, (E)-8-(2-Fluorostyryl)-1,3-dipropylxanthine]	> 100 mg/kg
CCCn1c(=O)c2c(nc(/C=C/c3ccc(OC)c(O)c3)n2C)n(CCC)c1=O [Compound 64, (E)-8-(3-Hydroxy-4-methoxystyryl)-7-methyl-1,3-dipropylxanthine]	> 100 mg/kg
CCn1c(=O)c2[nH]c(/C=C/c3cc(OC)c4c(c3)OCO4)nc2n(CC)c1=O [Compound 178, (E)-1,3-Diethyl-8-(3-methoxy-4,5-methylenedioxystyryl)xanthine]	> 100 mg/kg
CCn1c(=O)c2[nH]c(/C=C/c3cc(OC)cc(OC)c3)nc2n(CC)c1=O [Compound 129, (E)-8-(3,5-Dimethoxystyryl)-1,3-diethylxanthine]	> 100 mg/kg
CCCn1c(=O)c2nc(/C=C/c3cccc(F)c3)[nH]c2n(CCC)c1=O [Compound 37, (E)-8-(3-Fluorostyryl)-1,3-dipropylxanthine]	> 100 mg/kg
CCn1c(=O)c2c(nc(/C=C/c3cc(C)c(OC)cc3C)n2C)n(CC)c1=O [Compound 84, (E)-1,3-Diethyl-8-(4-methoxy-2,5-dimethylstyryl)-7-methylxanthine]	> 300 mg/kg
CCn1c(=O)c2[nH]c(/C=C/c3ccc(N(C)C)cc3)nc2n(CC)c1=O [Compound 169, (E)-8-[4-(N,N-Dimethylamino)styryl]-1,3-diethylxanthine]	> 100 mg/kg
CCCn1c(=O)c2[nH]c(/C=C/c3ccc(OC)c(Br)c3)nc2n(CCC)c1=O [Compound 56, (E)-8-(3-Bromo-4-methoxystyryl)-1,3-dipropylxanthine]	> 100 mg/kg
CCn1c(=O)c2[nH]c(/C=C/c3ccc4c(c3)OCO4)nc2n(CC)c1=O [Compound 87, (E)-1,3-Diethyl-8-(3,4-methylenedioxystyryl)xanthine]	> 300 mg/kg
CCCn1c(=O)c2[nH]c(/C=C/c3ccc4c(c3)OCCO4)nc2n(CCC)c1=O [Compound 17, (E)-8-[2-(1,4-Benzodioxan-6-yl)vinyl]-1,3-dipropylxanthine]	> 300 mg/kg
CCn1c(=O)c2c(nc(/C=C/c3cccc(Oc4ccccc4)c3)n2C)n(CC)c1=O [Compound 192, (E)-1,3-Diethyl-7-methyl-8-(3-phenoxystyryl)xanthine]	> 100 mg/kg
COc1ccc(/C=C/c2nc3c(c(=O)n(C)c(=O)n3C)n2C)c(OC)c1C [Compound 104, (E)-8-(2,4-Dimethoxy-3-methylstyryl)caffeine]	> 100 mg/kg
CCCCOc1ccc(/C=C/c2nc3c([nH]2)c(=O)n(CCC)c(=O)n3CCC)cc1 [Compound 52, (E)-8-(4-Butoxystyryl)-1,3-dipropylxanthine]	> 100 mg/kg
COc1ccc(/C=C/c2nc3c([nH]2)c(=O)n(C)c(=O)n3C)c(OC)c1C [Compound 103, (E)-8-(2,4-Dimethoxy-3-methylstyryl)theophylline]	> 100 mg/kg
CCn1c(=O)c2[nH]c(/C=C/c3cc(F)cc(F)c3)nc2n(CC)c1=O [Compound 155, (E)-8-(3,5-Difluorostyryl)-1,3-diethylxanthine]	> 100 mg/kg

Compound	MLD (minimum lethal dose)
CCn1c(=O)c2[nH]c(/C=C/c3ccc(OC)c(F)c3)nc2n(CC)c1=O [Compound 172, (E)-1,3-Diethyl-8-(3-fluoro-4-methoxystyryl)xanthine]	> 100 mg/kg
CCCn1c(=O)c2c(nc(/C=C\c3ccc(OC)c(OC)c3)n2C)n(CCC)c1=O [Compound 47, (Z)-8-(3,4-Dimethoxystyryl)-7-methyl-1,3-dipropylxanthine]	> 300 mg/kg
CCCn1c(=O)c2c(nc(/C=C/c3ccccc3Cl)n2C)n(CCC)c1=O [Compound 42, (E)-8-(2-Chlorostyryl)-7-methyl-1,3-dipropylxanthine]	> 100 mg/kg
CCn1c(=O)c2c(nc(/C=C/c3ccc4c(c3)OCCO4)n2C)n(CC)c1=O [Compound 90, (E)-8-[2-(1,4-Benzodioxan-6-yl)vinyl]-1,3-diethyl-7-methylxanthine]	> 300 mg/kg
CCn1c(=O)c2[nH]c(/C=C/c3ccc(OC)c(OC)c3Cl)nc2n(CC)c1=O [Compound 105, (E)-8-(2-Chloro-3,4-dimethoxystyryl)-1,3-diethylxanthine]	> 100 mg/kg
CCn1c(=O)c2[nH]c(C(F)=Cc3ccccc3)nc2n(CC)c1=O (stereo in doubt) [Compound 137, (E)-1,3-Diethyl-8-(α-fluorostyryl)xanthine]	> 100 mg/kg
CCn1c(=O)c2[nH]c(/C=C/c3ccc(C(F)(F)F)cc3)nc2n(CC)c1=O [Compound 135, (E)-1,3-Diethyl-8-(4-trifluoromethylstyryl)xanthine]	> 100 mg/kg
CCCn1c(=O)c2[nH]c(/C=C/c3ccc(OCC)cc3)nc2n(CCC)c1=O [Compound 48, (E)-8-(4-Ethoxystyryl)-1,3-dipropylxanthine]	> 100 mg/kg
COc1ccc(/C=C/c2nc3c([nH]2)c(=O)n(C)c(=O)n3C)c(OC)c1 [Compound 99, (E)-8-(2,4-Dimethoxystyryl)theophylline]	> 100 mg/kg
CCCn1c(=O)c2c(nc(/C=C/c3ccc(O)c(O)c3)n2C)n(CCC)c1=O [Compound 54, (E)-8-(3,4-Dihydroxystyryl)-7-methyl-1,3-dipropylxanthine]	> 100 mg/kg
CCn1c(=O)c2c(nc(/C=C/c3cccc(F)c3)n2C)n(CC)c1=O [Compound 128, (E)-1,3-Diethyl-8-(3-fluorostyryl)-7-methylxanthine]	> 300 mg/kg
COc1cc(C)c(/C=C/c2nc3c([nH]2)c(=O)n(C)c(=O)n3C)cc1C [Compound 101, (E)-8-(4-Methoxy-2,5-dimethylstyryl)theophylline]	> 100 mg/kg
COc1cccc(/C=C/c2nc3c(=O)n(C)c(=O)n(C)c3[nH]2)c1OC [Compound 97, (E)-8-(2,3-Dimethoxystyryl)theophylline]	> 100 mg/kg
COc1ccc(/C=C/c2nc3c(c(=O)n(C)c(=O)n3C)n2C)c(C)c1C [Compound 94, (E)-8-(4-Methoxy-2,3-dimethylstyryl)caffeine]	> 100 mg/kg
CCn1c(=O)c2c(nc(/C=C/c3ccc(Br)cc3)n2C)n(CC)c1=O [Compound 142, (E)-8-(4-Bromostyryl)-1,3-diethyl-7-methylxanthine]	> 100 mg/kg
CCOc1ccc(/C=C/c2nc3c([nH]2)c(=O)n(CC)c(=O)n3CC)cc1 [Compound 123, (E)-8-(4-Ethoxystyryl)-1,3-diethylxanthine]	> 100 mg/kg
